Results as given in publication PMC9643456, “Matching amino acids membrane preference profile to improve activity of antimicrobial peptides” (Communications Biology, 2022).
≈ marks a conversion by molar mass, not a printed value. Square brackets hold non-standard residues; d marks the D form. Ends that are not written are not given here. Peptide text beside a SMILES is read from it.

Experiments:
DMPC:DMPG liposomes = experiment: Isothermal titration calorimetry, peptide-liposome interaction; assay type: binding; conditions: ITC, PBS, 37 °C
Method: Liposomes were prepared using 1,2-dimyristoyl-sn-glycero-3-(phospho-rac-(1-glycerol)) (sodium salt) (DMPG) (Avanti, Alabama, USA); 1,2-dimyristoyl-sn-glycero-3-phosphocholine (DMPC) (Avanti); and cholesterol (Sigma, Darmstadt, Germany) were used. Bacterial membrane mimic DMPC/DMPG (7/3) unilamellar vesicles (LUVs), and mammalian membrane mimic DMPC/cholesterol (10/1) vesicles with 100-nm diameters were prepared using the freeze-thaw and extrusion method. Lipids were mixed and dissolved in methanol in round-bottomed flasks then evaporated and freeze-dried overnight, yielding a thin layer of lipid covering the glass wall. PBS was added to the lipid layer, after which the PBS-lipid layer was vortexed then frozen in liquid nitrogen and thawed in 50 °C water repeatedly until no visible layer remained. LiposoFast Liposome Factory Basic unit with stabilizer (Avestin, Ottawa, Canada) was then used to extrude the liposomes 50 times through a polycarbonate membrane filter (pore diameter, 100 nm; filter diameter, 0.75 inches) (Avestin). For circular dichroism, isothermal titration calorimetry, tryptophan fluorescence, and dynamic light scattering experiments, liposomes were reconstructed and resuspended in PBS (Welgene Inc, Gyeongsangbuk-do, Korea).
PC/PG liposome stock solutions and peptide solutions were diluted in PBS and degassed for 30 min. Peptide solutions (2 ml, 40 μM) were then loaded into a VP-ITC MicroCalorimeter (MicroCal, Northampton, USA). Liposome samples (600 μl, 2000 μM) were injected into the VP-ITC using a syringe. Measurement parameters were as follows: cell temperature, 37 °C; total injections, 30; reference power, 10; initial delay, 300; stirring speed, 300; edit mode, 10.0/12.0/200/2. Liposome solution (10 μl) was injected into the peptide solution 30 times. Each experiment was performed in duplicate. The results were calculated using MicroCal analysis.

A. baumannii strains = experiment: microbe, parasite or virus in culture; conditions: for Number of A. baumannii strains at MIC (μM) 0.63 / Number of A. baumannii strains at MIC (μM) 1.25 / Number of A. baumannii strains at MIC (μM) 2.5 / Number of A. baumannii strains at MIC (μM) 5 / Number of A. baumannii strains at MIC (μM) 10 / Number of A. baumannii strains at MIC (μM) ≤0.31 / Number of A. baumannii strains at MIC (μM) ≥20: of 30 strains
Method: Twenty-six A. baumannii strains were clinically isolated and gifted to us by the Kyungpook National University School of Medicine. One A. baumannii strain (ATCC 17978) was purchased and gifted to us by Kyungpook National University School of Medicine. One A. baumannii strain and 10 K. pneumoniae strains (NCCP) were purchased from the National Culture Collection for Pathogens.
(§1) To assess antimicrobial activity, the MIC50 and MIC90 were measured using broth microdilution following CLSI guidelines. […] Each experiment was performed in triplicate. Meropenem (Sigma, Darmstadt, Germany) and colistin were used as control antibiotics. Cation-adjusted Mueller–Hinton broth (CAMHB) (Becton, Dickinson and Company, Franklin Lakes, USA) with supplied calcium (50 mg/L) and magnesium (10 mg/L) was used for the CLSI-test condition. Bacteria in midlog phase and peptides were separately diluted in CAMHB. The bacteria and peptide solutions were then mixed in 96-well polyethylene plates (SPL, Gyeonggi-do, Korea) and incubated for 18 h at 37 °C. The final concentration for bacteria was 5 × 10^5 CFU/ml. […] The MIC was defined to be the lowest concentration of peptide without visible turbidity by comparing with control antibiotics with the unaided eye. […] Each experiment was performed in triplicate. MICs in albumin and acetic acid solutions were measured using the same protocol but with 0.2% bovine serum albumin (Bovogen, Keilor, Australia), 0.01% acetic acid (Merck, New Jersey, USA), and CAMHB with both calcium and magnesium. In addition, MICs used in the antibiotic resistance acquisition test, the outer–inner membrane permeation test, and the transmembrane potential test and for FE-SEM were individually determined. The final bacterial concentrations used were as follows: for resistance acquisition, optical density (OD) 0.01; for outer–inner membrane permeability assays (LB), OD 0.1; for the transmembrane potential test, 1 × 10^8 CFU/ml (OD 0.171); […]. Inhibitory activity unidentifiable by direct observation was determined by counting the CFUs. Each experiment was performed at least twice.

human red blood cells = experiment: Hemolytic activity; assay type: cell-based; conditions: red cells of human, 18 h
Outline: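 Haemolysis was read as A540 of cleared supernatants after 18 h at 37 °C, with 0% and 100% lysis set by peptide-free PBS and 1% Triton X-100 and melittin as positive control. Human RBCs were at 4% final, peptide serially diluted 100–0.78 μM; three replicates.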

E. aerogenes NCCP 16285 = experiment: microbe, parasite or virus in culture; conditions: NCCP 16285, 18 h
Method: as §1

## CC[C@@H](C)[C@@H](NC(=O)[C@@H](Cc1c[nH]c2ccccc12)NC(=O)[C@H](NC(=O)[C@@H](CC(C)C)NC(=O)[C@H](N)Cc1c[nH]c2ccccc12)C(C)C)C(=O)N[C@H](Cc1c[nH]c2ccccc12)C(=O)N[C@H](CCCNC(=N)N)C(=O)N[C@H](CCCNC(=N)N)C(=O)N[C@H](CCCNC(=N)N)C(N)=O [WCopW29] (H-[dW][dL][dV][dW][dI][dW][dR][dR][dR]-NH2)
DMPC:DMPG liposomes; run shown in Fig. 2a or run not numbered
  ΔS: 18.2 cal/mol deg
A. baumannii strains
  Number of A. baumannii strains at MIC (μM) 0.63: 3
  Number of A. baumannii strains at MIC (μM) 1.25: 25
  Number of A. baumannii strains at MIC (μM) 2.5: 2
  Number of A. baumannii strains at MIC (μM) 5: 0
  Number of A. baumannii strains at MIC (μM) 10: 0
  Number of A. baumannii strains at MIC (μM) ≤0.31: 0
  Number of A. baumannii strains at MIC (μM) ≥20: 0
A. baumannii strains; strains, 18 h
  MIC, A. baumannii ATCC 17978: 2.5 µM (≈ 3.42 µg/mL)
  MIC, A. baumannii ATCC BBA 1605: 0.63 µM (≈ 0.863 µg/mL)
  MIC, A. baumannii Isolated strain 1: 1.25 µM (≈ 1.71 µg/mL)
  MIC, A. baumannii Isolated strain 3: 2.5 µM (≈ 3.42 µg/mL)
  MIC, A. baumannii Isolated strain 6: 1.25 µM (≈ 1.71 µg/mL)
  MIC, A. baumannii Isolated strain 10: 1.25 µM (≈ 1.71 µg/mL)
  MIC, A. baumannii Isolated strain 14: 1.25 µM (≈ 1.71 µg/mL)
  MIC, A. baumannii Isolated strain 15: 1.25 µM (≈ 1.71 µg/mL)
  MIC, A. baumannii Isolated strain 16: 1.25 µM (≈ 1.71 µg/mL)
  MIC, A. baumannii Isolated strain 19: 1.25 µM (≈ 1.71 µg/mL)
  MIC, A. baumannii Isolated strain 22: 1.25 µM (≈ 1.71 µg/mL)
  MIC, A. baumannii Isolated strain 39: 1.25 µM (≈ 1.71 µg/mL)
  MIC, A. baumannii Isolated strain 44: 1.25 µM (≈ 1.71 µg/mL)
  MIC, A. baumannii Isolated strain 66: 1.25 µM (≈ 1.71 µg/mL)
  MIC, A. baumannii Isolated strain 68: 1.25 µM (≈ 1.71 µg/mL)
  MIC, A. baumannii Isolated strain 69: 1.25 µM (≈ 1.71 µg/mL)
  MIC, A. baumannii Isolated strain 71: 1.25 µM (≈ 1.71 µg/mL)
  MIC, A. baumannii Isolated strain 76: 1.25 µM (≈ 1.71 µg/mL)
  MIC, A. baumannii Isolated strain 80: 0.63 µM (≈ 0.863 µg/mL)
  MIC, A. baumannii Isolated strain 82: 1.25 µM (≈ 1.71 µg/mL)
  MIC, A. baumannii Isolated strain 86: 0.63 µM (≈ 0.863 µg/mL)
  MIC, A. baumannii Isolated strain 89: 1.25 µM (≈ 1.71 µg/mL)
  MIC, A. baumannii Isolated strain 102: 1.25 µM (≈ 1.71 µg/mL)
  MIC, A. baumannii Isolated strain 127: 1.25 µM (≈ 1.71 µg/mL)
  MIC, A. baumannii Isolated strain 141: 1.25 µM (≈ 1.71 µg/mL)
  MIC, A. baumannii Isolated strain 144: 1.25 µM (≈ 1.71 µg/mL)
  MIC, A. baumannii Isolated strain 147: 1.25 µM (≈ 1.71 µg/mL)
  MIC, A. baumannii Isolated strain 152: 1.25 µM (≈ 1.71 µg/mL)
  MIC, A. baumannii KCCM 40203: 1.25 µM (≈ 1.71 µg/mL)
  MIC, A. baumannii NCCP 14654: 1.25 µM (≈ 1.71 µg/mL)

## CC[C@@H](C)[C@@H](NC(=O)[C@@H](Cc1c[nH]c2ccccc12)NC(=O)[C@@H](CCCNC(=N)N)NC(=O)[C@@H](CCCNC(=N)N)NC(=O)[C@H](N)CCCNC(=N)N)C(=O)N[C@H](Cc1c[nH]c2ccccc12)C(=O)N[C@@H](C(=O)N[C@@H](C(=O)N[C@H](Cc1c[nH]c2ccccc12)C(=O)N[C@H](CCCCN)C(N)=O)[C@H](C)CC)C(C)C [WCopW43] (H-[dR][dR][dR][dW][dI][dW][dV][dI][dW][dK]-NH2)
Human red blood cells
  Hemolysis percent, 25 μM: 1.12 ± 0.20%
  Hemolysis percent, 50 μM: 2.22 ± 0.67%
  Hemolysis percent, 100 μM: 5.02 ±0.63%
A. baumannii strains
  Number of A. baumannii strains at MIC (μM) 0.63: 15
  Number of A. baumannii strains at MIC (μM) 1.25: 14
  Number of A. baumannii strains at MIC (μM) 2.5: 0
  Number of A. baumannii strains at MIC (μM) 5: 0
  Number of A. baumannii strains at MIC (μM) 10: 0
  Number of A. baumannii strains at MIC (μM) ≤0.31: 1
  Number of A. baumannii strains at MIC (μM) ≥20: 0
A. baumannii strains; strains, 18 h
  MIC50: 0.63 µM (≈ 0.944 µg/mL)
  MIC, A. baumannii ATCC 17978: 1.25 µM (≈ 1.87 µg/mL)
  MIC, A. baumannii Isolated strain 1: 1.25 µM (≈ 1.87 µg/mL)
  MIC, A. baumannii Isolated strain 3: 1.25 µM (≈ 1.87 µg/mL)
  MIC, A. baumannii Isolated strain 6: 0.63 µM (≈ 0.944 µg/mL)
  MIC, A. baumannii Isolated strain 10: 0.63 µM (≈ 0.944 µg/mL)
  MIC, A. baumannii Isolated strain 14: 1.25 µM (≈ 1.87 µg/mL)
  MIC, A. baumannii Isolated strain 15: 0.63 µM (≈ 0.944 µg/mL)
  MIC, A. baumannii Isolated strain 16: 1.25 µM (≈ 1.87 µg/mL)
  MIC, A. baumannii Isolated strain 19: 0.63 µM (≈ 0.944 µg/mL)
  MIC, A. baumannii Isolated strain 22: 0.63 µM (≈ 0.944 µg/mL)
  MIC, A. baumannii Isolated strain 39: 0.63 µM (≈ 0.944 µg/mL)
  MIC, A. baumannii Isolated strain 44: 1.25 µM (≈ 1.87 µg/mL)
  MIC, A. baumannii Isolated strain 66: 1.25 µM (≈ 1.87 µg/mL)
  MIC, A. baumannii Isolated strain 68: 1.25 µM (≈ 1.87 µg/mL)
  MIC, A. baumannii Isolated strain 69: 0.63 µM (≈ 0.944 µg/mL)
  MIC, A. baumannii Isolated strain 71: 0.63 µM (≈ 0.944 µg/mL)
  MIC, A. baumannii Isolated strain 76: < 0.31 µM
  MIC, A. baumannii Isolated strain 80: 0.63 µM (≈ 0.944 µg/mL)
  MIC, A. baumannii Isolated strain 82: 0.63 µM (≈ 0.944 µg/mL)
  MIC, A. baumannii Isolated strain 86: 0.63 µM (≈ 0.944 µg/mL)
  MIC, A. baumannii Isolated strain 89: 1.25 µM (≈ 1.87 µg/mL)
  MIC, A. baumannii Isolated strain 102: 0.63 µM (≈ 0.944 µg/mL)
  MIC, A. baumannii Isolated strain 127: 1.25 µM (≈ 1.87 µg/mL)
  MIC, A. baumannii Isolated strain 141: 0.63 µM (≈ 0.944 µg/mL)
  MIC, A. baumannii Isolated strain 144: 1.25 µM (≈ 1.87 µg/mL)
  MIC, A. baumannii Isolated strain 147: 1.25 µM (≈ 1.87 µg/mL)
  MIC, A. baumannii Isolated strain 152: 0.63 µM (≈ 0.944 µg/mL)
  MIC, A. baumannii KCCM 40203: 0.63 µM (≈ 0.944 µg/mL)
  MIC, A. baumannii NCCP 14654: 1.25 µM (≈ 1.87 µg/mL)
E. aerogenes NCCP 16285
  MIC, E. aerogenes NCCP 16285: 1.25 µM (≈ 1.87 µg/mL)

## RLWWRWIVR-NH2 [HLWCopW29-4]
Human red blood cells
  Hemolysis percent, 25 μM: 1.02 ±0.01%
  Hemolysis percent, 50 μM: 1.08 ±0.04%
  Hemolysis percent, 100 μM: 2.47 ±0.03%
DMPC:DMPG liposomes; 2nd run
  ΔS: -23.6 cal/moldeg

## WLVWIWRRR-NH2 [LWCopW29]
Human red blood cells
  Hemolysis percent, 25 μM: 0.84 ±0.06%
  Hemolysis percent, 50 μM: 5.15 ±0.15%
  Hemolysis percent, 100 μM: 13.65 ±0.74%
DMPC:DMPG liposomes; 1st run
  ΔS: 19.4 cal/moldeg
DMPC:DMPG liposomes; 2nd run
  ΔS: 19.4 cal/moldeg
